Values quoted from earlier work, collected in patent publication US20060134172A1, “Agents which regulate, inhibit, or modulate the activity and/or expression of lysyl oxidase (LOX) and LOX-like proteases as a unique means to both lower intraocular pressure and treat glaucomatous retinopathies/optic neuropathies” (Alcon, Inc., priority 2004, published 2006).

Target: T1, lysyl oxidase (Homo sapiens, UniProt P28300)
T1 sequence (P28300 169-417): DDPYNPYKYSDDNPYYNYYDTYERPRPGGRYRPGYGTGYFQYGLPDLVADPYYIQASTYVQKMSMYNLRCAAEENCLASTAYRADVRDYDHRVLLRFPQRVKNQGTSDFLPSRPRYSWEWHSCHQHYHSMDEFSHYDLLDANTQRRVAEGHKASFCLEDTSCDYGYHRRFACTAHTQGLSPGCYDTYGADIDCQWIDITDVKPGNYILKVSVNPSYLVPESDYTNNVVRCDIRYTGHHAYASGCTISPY
Conditions: known from U.S. Pat. No. 4,444,787

## N#CCCN [β-aminopropionitrile (BAPN), β-aminopropionitrile]
  in vitro inhibition of lysyl oxidase: inhibition
